What was measured:
MetAP2 = MetAP2 (Homo sapiens, UniProt P50579); assay: MetAp2 enzymatic assay, L-Met-AMC substrate (Experimental Set-Up 1); format: biochemical
Description: Quantitative MetAP2 activity assay by N-terminal cleavage of substrate 7-amino-4-methyl-courmarin was performed as follows: The activity of MetAP2 was measured using fluorescent peptide substrate L-Met-AMC (Santa Cruz Biotechnology, Inc, sc-207807) as described by Garrabrant et al. (Angiogenesis 7: 91-96, 2004). Briefly, the reaction (100 μl final) was initiated by adding 0.5 μg of MetAP2 or 5 μg HUVEC homogenate to reaction buffer containing 50 mM HEPES (pH 7.4), 100 mM NaCl, 0.1 mM CoCl2, 1 mg/ml PEG6000, and 250 μM L-Met-AMC substrate. The assay was prepared in black flat-bottomed 96-well microtiter plates and fluorescence was measured every 20 s over a period of 60 min at 25° C. using a microplate fluorometer (Bioteck, SynergyHT), with excitation and emission wavelengths set at 360 and 440 nm respectively. As a control the inhibition of the enzyme was obtained by incubating it with TNP-470 for 15 min before the addition of the substrate.
The inhibitory effect of the compounds were tested in MetAp2 enzymatic assay.

[1] = cited from earlier work
[2] = test system: Choroidal Neovascularization (CNV); assay: Laser-induced CNV in mice; format: in vivo, C57Bl/6J mice; conditions: Eylea, in the given dose and time
Source text: Laser-induced CNV was generated by a previously described technique with some modifications. C57Bl/6J mice (6-8 weeks) were anesthetized by intraperitoneal injections of a mixture of 85% ketamine and 15% xylazine. A mixture of 0.5% tropicamide and 0.5% phenylephrine hydrochloride was applied to both eyes to dilate the pupils. Lesions were induced by a diode pumped solid state laser (0.1 s; spot size, 100 μm; power 120 mW) around the optic nerve through a slit lamp delivery system using a Nidek while a hand-held cover slide was used as a contact lens. Only lesions in which a subretinal bubble or focal serous detachment of the retina developed were used for the experiments. For this purpose, 4 burns were performed per eye while leaving a space around the optic disc. Intravitreal injections of the treatments were performed using a PLI-100 Pico-Injector following the laser procedure. After 7 days mice were euthanized and their eyes were removed and fixed in 4% paraformaldehyde for 60 min. The cornea and lens were removed, and the entire retina was carefully dissected from the eyecup Choroid.
Blood vessels were labeled using a 1:200 dilution of isolectin IB4 conjugated with Alexa Fluor 488 or lectin-FITC. The eyecup was flat-mounted in an aqua-mount with the sclera facing down and the choroid facing up. […] The CNV area (presented in μm2) in choroidal flat mount was evaluated using ImageJ software […]

Chain of MetAP2 (P50579 whole entry): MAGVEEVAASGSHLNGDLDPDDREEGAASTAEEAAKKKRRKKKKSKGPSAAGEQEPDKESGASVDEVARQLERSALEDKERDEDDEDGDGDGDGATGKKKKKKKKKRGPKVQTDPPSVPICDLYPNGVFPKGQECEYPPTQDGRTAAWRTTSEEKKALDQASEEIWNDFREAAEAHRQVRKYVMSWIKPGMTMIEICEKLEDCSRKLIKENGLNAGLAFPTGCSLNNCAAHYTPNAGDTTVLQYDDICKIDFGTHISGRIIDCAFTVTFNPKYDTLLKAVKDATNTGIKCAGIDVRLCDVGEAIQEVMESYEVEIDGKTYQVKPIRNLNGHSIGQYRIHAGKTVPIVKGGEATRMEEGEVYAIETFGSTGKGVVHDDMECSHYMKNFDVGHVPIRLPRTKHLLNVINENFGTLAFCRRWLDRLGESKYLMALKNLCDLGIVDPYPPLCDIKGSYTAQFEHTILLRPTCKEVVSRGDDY

CO[C@@H]1[C@H](OC(=O)NC(=O)CCl)CC[C@]2(CO2)[C@H]1[C@@]1(C)O[C@@H]1CC=C(C)C [AD-3201]
inhibition of the catalytic activity of MetAp2 (MetAP2; 0.5 microM): 75% | inhibition of the catalytic activity of MetAp2 (MetAP2; 2.5 microM): 97%

CO[C@@H]1[C@H](OC(=O)C23CC4(C)CC(C)(CC(C)(C4)C2)C3)CC[C@]2(CO2)[C@H]1[C@@]1(C)O[C@@H]1CC=C(C)C [AD-3306, Fumagillol-3,5,7-trimethyladamantane-1-carboxylate]
activity in inhibiting the catalytic activity of MetAp2 compared to TNP-470 (MetAP2): almost identical to TNP-470 | inhibitory effect in MetAp2 enzymatic assay (ranking among compounds) (MetAP2): most active

CO[C@H]1C(C2(C)O[C@@H]2CC=C(C)C)[C@]2(CC[C@H]1OC(=O)NC(=O)CCl)CO2 (some centres unmarked) [TNP-470, O-chloroacetylcarbamoyl fumagillol]
inhibition at 2.5 µM (MetAP2; 2.5 microM, read-out: inhibition of the catalytic activity of MetAp2): 95% | adverse side-effects ([1]; in high doses): reversible neurotoxicity in some patients | half-life in plasma ([1]; intravenous formulation): minutes

Eylea: the standard of care, as treatment for “wet” AMD [reference compound]
effect on mouse laser induced CNV [2]: 59%

Reference: patent US20250129033A1, “METAP2 INHIBITORS AND USES THEREOF” (Yissum Research Development Company of the Hebrew …, priority 2022, published 2025)
